Experimental data published in publication PMC9416200, “Antifungal Potential of Synthetic Peptides against Cryptococcus neoformans: Mechanism of Action Studies Reveal Synthetic Peptides Induce Membrane–Pore Formation, DNA Degradation, and Apoptosis” (Pharmaceutics, 2022).
≈ marks a conversion by molar mass, not a printed value. Values belong to the molecule of their own block, whether it stands above or below them.

How the values were obtained:
C. neoformans infection = test system: C. neoformans infection; parameters: method as in PMID 34203688; conditions: treated mice; cited from earlier work
[1] = test system: laccase from C. neoformans; conditions: cited from earlier work
[2] = test system: Cryptococcus neoformans (ATCC 32045); assay: Minimum inhibitory concentration assay, broth microdilution; assay type: cell-based; conditions: YPD, 10^6 cells mL^−1, peptides 50 to 0.004 µg mL^−1, 24 h, absorbance 600 nm, ND = MIC50 not reached, three independent experiments

SMILES: O=c1oc2c(O)c(O)cc3c(=O)oc4c(O)c(O)cc1c4c23 [EA, Ellagic acid]
- survival rate toward C. neoformans infection (C. neoformans infection): 70%
- inhibition of laccase from C. neoformans [1]: interacts and inhibits the laccase

- MIC50 ([2]; Cryptococcus neoformans, ATCC32045, concentration required to inhibit 50% of yeast growth, read-out: MIC50 against C. neoformans): 500 µg/mL (≈ 709 µM)
SMILES: CCC(C)n1ncn(-c2ccc(N3CCN(c4ccc(OCC5COC(Cn6cncn6)(c6ccc(Cl)cc6Cl)O5)cc4)CC3)cc2)c1=O (centres unmarked) [Itraconazole]

SMILES: C[C@@H]1[C@H](O)[C@@H](C)/C=C/C=C/CC/C=C/C=C/C=C/C=C/C(O[C@H]2O[C@H](C)[C@@H](O)[C@H](N)[C@@H]2O)CC2O[C@](O)(CC(O)C(O)CCC(O)CC(O)CC(O)CC(=O)O[C@H]1C)CC(O)C2C(=O)O (some centres unmarked) [Nystatin]
- MIC50 against C. neoformans ([2]; concentration required to inhibit 50% of yeast growth): 250 µg/mL (≈ 270 µM)

SMILES: OC(Cn1cncn1)(Cn1cncn1)c1ccc(F)cc1F [fluconazole]
- survival rate toward C. neoformans infection (C. neoformans infection): 20%
